Data from patent US7858349B2, “Anti-cancer compounds” (The Regents of the University of Colorado, priority 1999, dated 2010).
Read-outs that look alike come from different tables or passages of the source.

Tests used:
[1] = system: SCLC strain SHP-77; test: MTT assay for cell survival, SCLC SHP-77 in vitro; type: cell-based, human; conditions: ED50 for killing of SCLC strain SHP-77 in vitro, 4 days, 0 = no detectable activity
[2] = system: PC3 PC cells; test: Inhibition of PC3 tumor growth in vivo in nude mice; set-up: species or system athymic nude mice; key to PC3 In vivo % inhib.: an IC50 value of “0” represents no detectable anti-cancer activity for a drug in a given cell line; “Stim.” indicates the observation of a stimulatory activity on the growth of the cancer cell line; conditions: percent inhibition of tumor growth in nude mice; prostate cancer; i.p. 5 mg/kg/every second day or 10 mg/kg/every fourth day
Method: Compounds having high in vitro cytotoxic activity were tested against implanted tumors in vivo. Athymic nude mice were implanted subcutaneously with suspensions (2 million SHP-77 SCLC cells, 1 million A549 NSCLC cells or 1.5 million PC3 PC cells) in Matrigel suspension. On the eighth day after tumor implantation groups of 5 mice bearing implants were injected intraperitoneally with the compounds being tested at 5 mg/kg/every second day or at 10 mg/kg/every fourth day; control animals were injected with an equal volume of isotonic saline. Less soluble compounds were initially dissolved in dimethyl sulfoxide (DMSO) and diluted with medium. In those cases the control injections contained the same concentration of DMSO. Tumor size was measured with a caliper three times per week. Tumor volume was calculated by the formula: Volume(cc)=3.14×(length)×(width)^2/6 At autopsy tumors were removed and weighed. Tumor inhibition was calculated on both weight and measurement basis. In each Table, an IC50 value of “0” represents no detectable anti-cancer activity for a drug in a given cell line and “Stim.” indicates the observation of a stimulatory activity on the growth of the cancer cell line.

SMILES	IC50 ([1]; read-out: SCLC SHP-77 IC50) [µM]	PC3 In vivo % inhib. [2]	IC50 ([1]; read-out: SHP-77 In vitro IC50) [µM]
CC1(C)CC(NC(=O)[C@H](Cc2ccc(OCc3c(Cl)cccc3Cl)cc2)NC(=O)C(C#N)=Cc2ccc(O)cc2)CC(C)(C)N1 [Analog M-1638, Chc-OC2Y-Atmp]	18	39%	–
C=CCN1C(C)CN(C(=O)C(Cc2ccc(OCc3c(Cl)cccc3Cl)cc2)NC(=O)C=Cc2c(F)c(F)c(F)c(F)c2F)CC1C (stereo not drawn) [Analog M-1614, F5c-OC2Y-cDmap]	2	54%	–
COc1ccc2c(c1)c(CC(=O)N[C@@H](Cc1ccc(OCc3c(Cl)cccc3Cl)cc1)C(=O)N1CCN(C/C=C/c3ccccc3)CC1)c(C)n2C(=O)c1ccc(Cl)cc1 [Analog M-1566, Indo-OC2Y-tCip]	> 60	57%	–
CC1(C)CC(NC(=O)C(Cc2ccc(OCc3c(Cl)cccc3Cl)cc2)NC(=O)c2ccc(-c3ccccc3)cc2)CC(C)(C)N1 (stereo not drawn) [Analog M-1542, 4Bpc-OC2Y-Atmp]	6.4	Stim.	–
COc1ccc2cc(C(C)C(=O)NC(C(=O)NC3CC(C)(C)NC(C)(C)C3)C(C)(C)SCc3ccc(C)cc3)ccc2c1 (stereo not drawn) [Analog M-1506, Napr-Pen(Mbzl)-Atmp]	4.7	13%	–
CCCCC/C=C\C/C=C\C/C=C\C/C=C\CCCC(=O)NC(Cc1ccc(OCc2c(Cl)cccc2Cl)cc1)C(=O)NC1CC(C)(C)NC(C)(C)C1 (stereo not drawn) [Analog M-1442, Arac-OC2Y-Atmp]	6.4	31%	–
CN1CCN(CCCNC(=O)[C@H](Cc2ccc(OCc3c(Cl)cccc3Cl)cc2)NC(=O)/C=C/c2c(F)c(F)c(F)c(F)c2F)CC1 [Analog M-1582, F5c-OC2Y-Amp]	6.7	60%	–
CC1(C)CC(NC(=O)[C@H](Cc2ccc(OCc3c(Cl)cccc3Cl)cc2)NCc2cnc3ccccc3c2)CC(C)(C)N1 [Analog M-1604, 3Qum-OC2Y-Atmp]	7.4	Stim.	–
CC1(C)CC(NC(=O)C(Cc2ccc(C#N)cc2)NC(=O)C=Cc2c(F)c(F)c(F)c(F)c2F)CC(C)(C)N1 (stereo not drawn) [Analog M-1110, F5c-PCNF-Atmp]	–	54%	0.9
CC1(C)CC(NC(=O)C(Cc2ccc(OCc3c(Cl)cccc3Cl)cc2)NC(=O)/C=C/c2cc(C(F)(F)F)cc(C(F)(F)F)c2)CC(C)(C)N1 (stereo not drawn) [Analog M-1444, Tf2c-OC2Y-Atmp]	1.4	11%	–
CC1(C)CC(NC(=O)C(Cc2ccc([N+](=O)[O-])cc2)NC(=O)C=Cc2c(F)c(F)c(F)c(F)c2F)CC(C)(C)N1 (stereo not drawn) [Analog M-1112, F5c-PNF-Atmp]	–	24%	30
CC1(C)CC(NC(=O)C(Cc2ccc(OCc3c(Cl)cccc3Cl)cc2)NS(=O)(=O)c2c(F)c(F)c(F)c(F)c2F)CC(C)(C)N1 (stereo not drawn) [Analog M-1092, F5BS-OC2Y-Atmp]	–	Stim.	14
CC1(C)CC(NC(=O)C(Cc2ccc(C#N)cc2)NC(=O)CCCCC2SCC3NC(=O)NC32)CC(C)(C)N1 (stereo not drawn) [Analog M-1466, Biot-PCNF-Atmp]	> 60	29%	–
Cc1ccc(CSC(C)(C)C(NC(=O)CCCCC2SCC3NC(=O)NC32)C(=O)NC2CC(C)(C)NC(C)(C)C2)cc1 (stereo not drawn) [Analog M-1468, Biot-Pen(Mbzl)-Atmp]	> 60	46%	–
CC1(C)CC(NC(=O)C(Cc2ccc(OCc3c(Cl)cccc3Cl)cc2)NC(=S)Nc2c(F)c(F)c(F)c(F)c2F)CC(C)(C)N1 (stereo not drawn) [Analog M-1094, F5PT-OC2Y-Atmp]	–	52%	3.2
O=C(N[C@@H]1CN2CCC1CC2)C(Cc1ccc(OCc2c(Cl)cccc2Cl)cc1)NC(=O)C(c1ccccc1)C1CCCCC1 (single isomer, unassigned) [M-1550 #1]	2.5	36%	–
O=C(C=Cc1c(F)c(F)c(F)c(F)c1F)NC(Cc1ccc(OCc2c(Cl)cccc2Cl)cc1)C(=O)NC1CN2CCC1CC2 [Analog M-1544, F5c-OC2Y-(R)-Aqu]	6	28%	–
CC1(C)CC(NC(=O)C(Cc2ccc(OCc3c(Cl)cccc3Cl)cc2)NC(=O)C2CSC(=O)N2)CC(C)(C)N1 (stereo not drawn) [Analog M-1630, Otac-OC2Y-Atmp]	60	71%	–
CC1(C)CC(NC(=O)C(Cc2ccc(OCc3c(Cl)cccc3Cl)cc2)NC(=O)c2ccc(S(N)(=O)=O)cc2)CC(C)(C)N1 (stereo not drawn) [Analog M-1458, Sab-OC2Y-Atmp]	> 60	Stim.	–
CC1(C)CC(NC(=O)C(Cc2ccc(OCc3c(Cl)cccc3Cl)cc2)NC(=O)C=Cc2ccc(C=O)cc2)CC(C)(C)N1 (stereo not drawn) [Analog M-1456, Fcin-OC2Y-Atmp]	4	17%	–

SMILES	IC50 ([1]; read-out: SCLC SHP-77 IC50) [µM]	PC3 In vivo % inhib. [2]	IC50 ([1]; read-out: SHP-77 In vitro IC50) [µM]
CC1(C)CC(NC(=O)C(Cc2ccc(F)cc2)NC(=O)C=Cc2ccco2)CC(C)(C)N1 (stereo not drawn) [Analog M-1154, 2-Fa-PFF-Atmp]	–	Stim	> 60
CC1(C)CC(NC(=O)C(Cc2ccc(OCc3c(Cl)cccc3Cl)cc2)NC(=O)c2ccccc2O)CC(C)(C)N1 (stereo not drawn) [Analog M-1450, 2Hyb-OC2Y-Atmp]	13	Stim.	–
Cc1ncc(CO)c(CNC(=O)[C@H](Cc2ccc(OCc3c(Cl)cccc3Cl)cc2)NC(=O)/C=C/c2c(F)c(F)c(F)c(F)c2F)c1O [Analog M-1622, F5c-OC2Y-Pxa]	22	58%	–
CC(C=CC1=C(C)CCCC1(C)C)=CC=CC(C)=CC(=O)NC(Cc1ccc(OCc2c(Cl)cccc2Cl)cc1)C(=O)NC1CC(C)(C)NC(C)(C)C1 (stereo not drawn) [Analog M-1446, Ret-OC2Y-Atmp]	6.7	60%	–
CC1(C)CC(NC(=O)C(Cc2ccc(OCc3c(Cl)cccc3Cl)cc2)NC(=O)C(C2CCCCC2)C2CCCCC2)CC(C)(C)N1 (stereo not drawn) [Analog M-1116, Dca-OC2Y-Atmp]	–	19%	7.5
Cc1ccc(CSC(C)(C)C(NC(=O)COc2c(F)c(F)c(F)c(F)c2F)C(=O)NC2CC(C)(C)NC(C)(C)C2)cc1 (stereo not drawn) [Analog M-1486, F5po-Pen(Mbzl)-Atmp]	4.2	21%	–
CC1(C)CC(NC(=O)[C@H](Cc2ccc(OCc3c(Cl)cccc3Cl)cc2)NC(=O)CC2CC3CCC2C3)CC(C)(C)N1 (stereo partly drawn) [Analog M-1650, Nba-OC2Y-Atmp]	4.3	40%	–
CC1(C)CC(NC(=O)C(Cc2ccc(Br)cc2)NC(=O)C=Cc2c(F)c(F)c(F)c(F)c2F)CC(C)(C)N1 (stereo not drawn) [Analog M-1144, F5c-PBF-Atmp]	–	20%	7.2
COc1ccc2c(c1)c(CC(=O)NC(Cc1ccc(OCc3c(Cl)cccc3Cl)cc1)C(=O)NC1CN3CCC1CC3)c(C)n2C(=O)c1ccc(Cl)cc1 [Analog M-1588, Indo-OC2Y-(R)-Aqu]	3.9	8%	–
Cc1ccc(CSC(C)(C)C(NC(=O)C=Cc2cc(F)cc(F)c2F)C(=O)NC2CC(C)(C)NC(C)(C)C2)cc1 (stereo not drawn) [Analog M-1502, F3c-Pen(Mbzl)-Atmp]	3.4	11%	–
Cc1ccc(CSC(C)(C)C(NC(=O)CCCc2ccc(N(CCCl)CCCl)cc2)C(=O)NC2CC(C)(C)NC(C)(C)C2)cc1 (stereo not drawn) [Analog M-1498, Chl-Pen(Mbzl)-Atmp]	3.5	20%	–
Cc1ncc(COP(=O)(O)O)c(CN[C@@H](Cc2ccc(OCc3c(Cl)cccc3Cl)cc2)C(=O)NC2CC(C)(C)NC(C)(C)C2)c1O [Analog M-1612, B6P-OC2Y-Atmp]	> 60	Stim.	–
CC1(C)CC(NC(=O)[C@H](Cc2ccc(OCc3c(Cl)cccc3Cl)cc2)NC(=O)c2ccc3c(c2)C(=O)c2ccccc2C3=O)CC(C)(C)N1 [Analog M-1618, Aq2c-OC2Y-Atmp]	2.2	10%	–
CC1(C)CC(NC(=O)C(Cc2ccc(OCc3c(Cl)cccc3Cl)cc2)NC(=O)C=Cc2ccc(B(O)O)cc2)CC(C)(C)N1 (stereo not drawn) [Analog M-1460, Bcin-OC2Y-Atmp]	23	38%	–
CC1(C)CC(NC(=O)[C@H](Cc2ccc(OCc3c(Cl)cccc3Cl)cc2)NC(=O)c2ccc(N)cc2O)CC(C)(C)N1 [Analog M-1592, Pas-OC2Y-Atmp]	7.2	Stim.	–
CC1(C)CC(NC(=O)C(Cc2c[nH]c3ccccc23)NC(=O)C=Cc2c(F)c(F)c(F)c(F)c2F)CC(C)(C)N1 (stereo not drawn) [Analog M-1114, F5c-Trp-Atmp]	–	28%	> 60
CC1(C)CC(NC(=O)C(Cc2ccc(OCc3c(Cl)cccc3Cl)cc2)NC(=O)C2=CN3CCC2CC3)CC(C)(C)N1 (stereo not drawn) [Analog M-1396, Dhq-OC2Y-Atmp]	15	9%	–
O=C(/C=C/c1c(F)c(F)c(F)c(F)c1F)N[C@@H](Cc1ccc(OCc2c(Cl)cccc2Cl)cc1)C(=O)NCCN1CCOCC1 [Analog M-1632, F5c-OC2Y-Aem]	7.8	32%	–
CC1(C)CC(NC(=O)C(Cc2ccc(OCc3c(Cl)cccc3Cl)cc2)NS(=O)(=O)c2ccc(OC(F)(F)F)cc2)CC(C)(C)N1 (stereo not drawn) [Analog M-1536, 4Tmbs-OC2Y-Atmp]	3.2	Stim.	–
